According to patent publication US20170158636A1, “FUNCTIONALISED AND SUBSTITUTED CARBAZOLES AS ANTI-CANCER AGENTS” (Novogen Ltd., priority 2014, published 2017):

Assays:
A375 melanoma xenograft = assay: A375 melanoma flank xenograft model; format: in vivo; conditions: IV 60 mg/kg in 30% (w/v) Captisol daily for 16 days, mice
Experimental: FIG. 5: Effect of compound 1001 on tumour growth in vivo. Compound 1001 was administered IV at 60 mg/kg for 16 days in a flank xenograft model of melanoma (A375). Tumour volume was measured every 2-3 days. **p<0.01, ***P<0.001.
In vivo efficacy studies for compound 1001 were conducted using an A375 melanoma xenograft model in Foxn-1 nu/nu athymic mice. The human melanoma cell line A375 (sourced from American Type Culture Collection (ATCC), USA) was used for developing the flank xenograft model. Briefly, five million cells were injected subcutaneously in the right flank region of the animal. When the tumors reached 130-150 mm^3 the animals were randomized into two groups, each group with 8 animals in them, so that the average tumor volume of all the groups was same.
Compound 1001 was delivered intravenously (IV) at 60 mg/kg in a 30% (w/v) Captisol (cyclodextrin-containing) formulation daily for 16 days. The control group was dosed with the Captisol vehicle alone.

Skeletal myosin II = assay: Actin-activated myosin II ATPase activity; format: biochemical; conditions: 50 μM, absence of Tpm3.1
Experimental: FIG. 4: Effect of anti-tropomyosin compounds on actin-activated myosin II ATPase activity. Skeletal myosin II (30-60 nM) was incubated with 1% (v/v) DMSO or 50 μM of Blebbistatin, TR100 or compound 1001 for 5 min prior to mixing with 3 μM F-actin. Reactions were initiated with 1 mM ATP and inorganic phosphate release was detected spectrophotometrically. Data represents mean±SEM, for n=2-4 independent repeats. **P-value, 0.001<0.01.
To exclude an off-target activity, the impact of compound 1001 and TR100 (another small molecule with anti-tropomyosin activity) on myosin II ATPase activity was evaluated in the absence of Tpm3.1. The small molecule blebbistatin was included as a positive control known to inhibit myosin II ATPase activity. Blebbistatin acts by binding to the myosin-ADP-Pi complex and slowing the release of inorganic phosphate (Kovacs et al., 2004). Myosin II was pre-incubated with 50 μM of blebbistatin, TR100 or 1001 prior to mixing with F-actin. […] Compound 1001 had no effect on myosin ATPase activity at equivalent concentrations to that of TR100 (FIG. 4).

[1] = test system: actin cytoskeleton in SK-N-SH neuroblastoma cells; assay: Microfilament disruption assay (phalloidin staining, linear feature quantitation); format: cell-based; conditions: 0-40 μM, 24 hours post treatment
Experimental: FIG. 1: Imaging and quantitation of actin filaments in SK-N-SH neuroblastoma cells treated with compound (A) 1007, (B) 1013 and (C) 1016. Cells were stained with 488-Atto-Phallodin and DAPI to visualize the actin filament bundles and the nucleus, respectively. Shown in the top panel is a representative gray scale immunofluorescent image from control (vehicle alone), 5 μM and 10 μM treated cells. […] The coloured lines indicate the detected actin filaments. Also shown is the quantitation of cell number, filament number/cell and filament number/cell area (μM^2). Statistical analysis was performed using a one way ANNOVA-multiple comparison where each drug treated group was compared to the control. ****p<0.0001, […].
The ability of compounds 1007, 1013 and 1016 to disrupt the actin cytoskeleton was assessed in vitro using the microfilament disruption assay (FIG. 1).
Briefly, SK-N-SH neuroblastoma cells were seeded at 1800 cells/well in a 384 Perkin Elmer High Content Imaging “Cell Carrier” plate and left to plate down 24 hours prior to treatment. Cells were then treated with 0-40 μM of the test compounds (1:2 serial dilution in a 10 point dose response). 24 hours post treatment, cells were fixed with 4% w/v paraformaldehyde (PBS), permeabilized with Triton-X-100 and stained with 488-Atto-Phallodin and DAPI to visualize the actin filament bundles and the nucleus respectively. Single plane images were obtained on the Perkin Elmer Opera confocal microscope using a 20× objective. Twelve fields of view per condition (representing approximately 300-800 cells) were imaged. Images were then exported and changes in the organization and numbers of actin filaments within the cell were quantitated using a linear feature detection algorithm developed by CSIRO (Vindin et al. 2014). This algorithm detects the “ridge lines” or “peaks” in local pixel intensity in the cell image. It is these “ridge lines” that correspond to actin filament bundles and allow us to quantitate the number of filaments per cell.

SK-Mel-28 melanoma cells = assay: Anti-proliferative activity, cell-titre luminescent viability assay; format: cell-based; conditions: Homo sapiens, 72 hours exposure
Experimental: (§1) The ability of compounds 1001-1018 and 1037-1039 to inhibit the proliferation of cancer cells representative of neuroblastoma, melanoma, prostate cancer, colorectal cancer, non-small cell lung carcinoma, and triple negative breast cancer was assessed (Table 1).
(§2) Briefly, a pre-determined number of cells as calculated from cell growth assays for each of the cell lines employed were seeded into their respective culture medium (using ATCC culture parameters—http://www.atcc.org) and cultured for 24 hours at 37° C. and 5% CO2 in 96-well culture plates. Once attached, each cell line was then exposed to increasing concentrations of each respective analogue (0.03, 0.3, 3 and 30 μM for compounds 1001-13 and 1015-18; 0.1, 0.3, 1, 3, 10 and 30 μM for compounds 1014 and 1037-39), cultured for a further 72 hours and exposed to cell-titre luminescent reagent (100 μL/well) for a further 30 minutes) to measure cell viability. Luminescence was captured using an EnVision multilabel reader and the data for each analogue concentration compared against no treatment control. For compounds 1001-13 and 1015-18, semi-log plots of Percent of Control versus concentration were prepared and IC50 determined using linear regression analysis. For compounds 1014 and 1037-39, cell viability was normalized to control (vehicle alone) and dose-response curves, and half maximal effective concentration (EC50) values were determined using Graph Pad Prism 6 (nonlinear regression sigmoidal dose-response variable slope).

[2] = test system: MDA-MB-231 breast cancer cells; assay: as above; format: cell-based; conditions: Homo sapiens, 72 hours exposure
Experimental: as §1, §2

[3] = test system: DU145 prostate cancer cells; assay: as above; format: cell-based; conditions: Homo sapiens, DU-145, 72 hours exposure
Experimental: as §1, §2

[4] = test system: A549 lung (NSLC) cancer cells; assay: as above; format: cell-based; conditions: Homo sapiens, 72 hours exposure
Experimental: as §1, §2

[5] = test system: PC3 prostate cancer cells; assay: as above; format: cell-based; conditions: 72 hours exposure
Experimental: as §1, §2

Tpm3.1 = Tpm3.1 (Homo sapiens, UniProt P06753); assay: Cell free actin co-sedimentation assay; format: binding; conditions: 50 μM compound, 3 μM F-actin
Experimental: (§3) FIG. 3: Impact of compound 1001 on the polymerization of tropomyosin and its subsequent association with actin. Increasing concentrations of (A) cytoskeletal Tpm3.1 or (B) muscle alpha-fast Tm (0.3-4.0 μM) were pre-incubated with 1% (v/v) DMSO (vehicle control) or 50 μM ATM-1001 prior to combining with 3 μM F-actin. The Tm/F-actin mixture was sedimented and the ratio of tropomyosin:actin in the pellet, normalized to the ratio that occurs at tropomyosin saturation, was plotted against the concentration of unbound tropomyosin in the supernatant.
(§4) Cell free actin co-sedimentation assays were preformed to analyze the impact of compound 1001 on the polymerization of tropomyosin and subsequent association with actin. The impact of compound 1001 on Tpm3.1 binding was compared to the striated muscle isoform, alpha-fast Tm, which has an unrelated C-terminus.

alpha-fast Tm = alpha-fast Tm (Homo sapiens, UniProt P09493); assay: Cell free actin co-sedimentation assay; format: binding; conditions: 50 μM compound, 3 μM F-actin
Experimental: as §3, §4

alpha-fast Tm, sequence (P09493 whole entry): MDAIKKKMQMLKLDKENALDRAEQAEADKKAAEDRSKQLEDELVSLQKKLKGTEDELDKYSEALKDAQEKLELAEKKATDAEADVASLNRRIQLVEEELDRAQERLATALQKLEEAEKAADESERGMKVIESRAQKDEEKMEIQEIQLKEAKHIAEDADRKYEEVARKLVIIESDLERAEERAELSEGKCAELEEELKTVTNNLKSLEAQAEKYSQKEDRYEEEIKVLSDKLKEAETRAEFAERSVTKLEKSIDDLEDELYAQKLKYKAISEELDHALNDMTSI
Tpm3.1, sequence (P06753 1-248 isoform P06753-2): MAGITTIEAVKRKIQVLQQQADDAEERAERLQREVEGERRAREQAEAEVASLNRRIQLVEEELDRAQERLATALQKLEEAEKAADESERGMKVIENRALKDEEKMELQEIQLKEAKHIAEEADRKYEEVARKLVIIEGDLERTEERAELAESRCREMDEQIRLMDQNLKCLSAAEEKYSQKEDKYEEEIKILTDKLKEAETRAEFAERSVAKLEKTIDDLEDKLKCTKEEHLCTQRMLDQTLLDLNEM

## CN(C)CCCn1c2ccccc2c2cc(C(=O)N3CCN(CCc4ccccc4)CC3)ccc21 [Compound 1001, (9-(3-(dimethylamino)propyl)-9H-carbazol-3-yl)(4-phenethylpiperazin-1-yl)methanone]
A375 melanoma xenograft
  reduction in melanoma tumor growth: ~40%
  tolerance of treatment: well tolerated
Skeletal myosin II
  effect on actin-activated myosin II ATPase activity: no effect
[1]
  disruption of the actin cytoskeleton: strong on-target, dose-dependent profile
SK-Mel-28 melanoma cells
  IC50: 2.3 µM
[2]
  IC50: 4.4 µM
[3]
  IC50: > 30 µM
[4]
  IC50: 8.5 µM
[5]
  IC50: 5.5 µM
Tpm3.1
  polymerization and association of Tpm3.1 with actin: profoundly inhibited
alpha-fast Tm
  binding affinity and cooperativity of alpha-fast Tm for F-actin: not affected
